Measured values from US5792747A, “Highly potent agonists of growth hormone releasing hormone” (The Administrators of the Tulane Educational Fund, priority 1995, dated 1998).
Non-standard residues stand in square brackets, D forms with d. Residues, ends and D or L forms follow the SMILES beside them. No end group written: not given here. *: point of attachment. Desaminotyrosyl = O=C(CCc1ccc(O)cc1)*; Agmatine = N=C(N)NCCCCN*; Nle = CCCC[C@H](N)C(=O)O; Orn = NCCC[C@H](N)C(=O)O; Abu = CC[C@H](N)C(=O)O

Key:
[1] = tested on: superfused rat pituitary cell system; assay: GH release in superfused rat pituitary cell system (in vitro); assay type: cell-based; settings: 0.1-0.5 nM, 3 min administration, superfused rat pituitary cells
Description: The compounds of the present invention were tested both in vitro and in vivo. The levels of GH released in vivo by the synthetic peptides, following their intravenous (i.v.) or subcutaneous (sc.) injection in rats, are shown in Tables 2 and 3 respectively. The potencies of the peptides, based on 4-point assays, were calculated in all the Examples of this specification, by the factorial analyses of Bliss and Marks with 95% confidence limits.
Growth hormone releasing activity in vitro is assayed by using a superfused rat pituitary cell system as described in S. Vigh and A. V. Schally, Peptides 5, Suppl: 241-347, 1984, which is incorporated by reference herein. Each peptide, hGH-RH (1-29)NH2 (as control) and the synthetic peptide hGH-RH analogs of the present invention, is administered for 3 minutes (1 ml. perfusate) at various concentrations as shown below. Fractions of 1 ml are coIlected and the GH content in each is determined by RIA.

[2] = tested on: GH-deficient children; settings: subcutaneously twice a day; cited from earlier work

Row | Compound | Potency relative to hGH-RH(1-29)NH2 = 1 (GH release in vitro) [1] | share of GH-deficient children in whom linear growth was promoted [2]
1 | CCCC[C@H](NC(=O)[C@@H](NC(=O)[C@H](CC(=O)O)NC(=O)[C@H](CCC(N)=O)NC(=O)[C@H](CC(C)C)NC(=O)[C@H](CC(C)C)NC(=O)[C@H](CCCN)NC(=O)[C@H](CCCNC(=N)N)NC(=O)[C@H](C)NC(=O)[C@H](CO)NC(=O)[C@H](CC(C)C)NC(=O)[C@H](CCC(N)=O)NC(=O)[C@H](CC)NC(=O)[C@H](CC(C)C)NC(=O)[C@@H](NC(=O)[C@H](CCCN)NC(=O)[C@H](CCCNC(=N)N)NC(=O)[C@H](Cc1ccc(O)cc1)NC(=O)[C@H](CO)NC(=O)[C@H](CC(N)=O)NC(=O)[C@@H](NC(=O)[C@H](Cc1ccccc1)NC(=O)[C@@H](NC(=O)[C@H](C)NC(=O)[C@H](CC(=O)O)NC(=O)[C@H](C)NC(=O)CCc1ccc(O)cc1)[C@@H](C)CC)[C@@H](C)O)C(C)C)[C@@H](C)CC)C(=O)N[C@@H](CO)C(=O)NCCCCNC(=N)N [Example I, (Dat^1,Orn ^12,21,Abu^15,Nle^27,Agm^29)hGH-RH(1-29)] (Desaminotyrosyl-ADAIFTNSYR[Orn]VL[Abu]QLSAR[Orn]LLQDI[Nle]S-Agmatine) | 5.9 | 
2 | CCCC[C@H](NC(=O)[C@@H](NC(=O)[C@H](CC(=O)O)NC(=O)[C@H](CCC(N)=O)NC(=O)[C@H](CC(C)C)NC(=O)[C@H](CC(C)C)NC(=O)[C@H](CCCN)NC(=O)[C@H](CCCNC(=N)N)NC(=O)[C@H](C)NC(=O)[C@H](CO)NC(=O)[C@H](CC(C)C)NC(=O)[C@H](CCC(N)=O)NC(=O)[C@H](CC)NC(=O)[C@H](CC(C)C)NC(=O)[C@@H](NC(=O)[C@H](CCCCN)NC(=O)[C@H](CCCNC(=N)N)NC(=O)[C@H](Cc1ccc(O)cc1)NC(=O)[C@H](CO)NC(=O)[C@H](CC(N)=O)NC(=O)[C@@H](NC(=O)[C@H](Cc1ccccc1)NC(=O)[C@@H](NC(=O)[C@H](C)NC(=O)[C@H](CC(=O)O)NC(=O)[C@H](C)NC(=O)CCc1ccc(O)cc1)[C@@H](C)CC)[C@@H](C)O)C(C)C)[C@@H](C)CC)C(=O)N[C@@H](CO)C(=O)NCCCCNC(=N)N [Example II, (Dat^1,Abu^15,Orn^21,Nle^27,Agm^29)hGH-RH(1-29)] (Desaminotyrosyl-ADAIFTNSYRKVL[Abu]QLSAR[Orn]LLQDI[Nle]S-Agmatine) | 6.4 | 
3 | CCCC[C@H](NC(=O)[C@@H](NC(=O)[C@H](CC(=O)O)NC(=O)[C@H](CCC(N)=O)NC(=O)[C@H](CC(C)C)NC(=O)[C@H](CC(C)C)NC(=O)[C@H](CCCCN)NC(=O)[C@H](CCCNC(=N)N)NC(=O)[C@H](C)NC(=O)[C@H](CO)NC(=O)[C@H](CC(C)C)NC(=O)[C@H](CCC(N)=O)NC(=O)[C@H](CC)NC(=O)[C@H](CC(C)C)NC(=O)[C@@H](NC(=O)[C@H](CCCN)NC(=O)[C@H](CCCNC(=N)N)NC(=O)[C@H](Cc1ccc(O)cc1)NC(=O)[C@H](CO)NC(=O)[C@H](CC(N)=O)NC(=O)[C@@H](NC(=O)[C@H](Cc1ccccc1)NC(=O)[C@@H](NC(=O)[C@H](C)NC(=O)[C@H](CC(=O)O)NC(=O)[C@H](C)NC(=O)CCc1ccc(O)cc1)[C@@H](C)CC)[C@@H](C)O)C(C)C)[C@@H](C)CC)C(=O)N[C@@H](CO)C(=O)NCCCCNC(=N)N [Example III, (Dat^1,Orn^12,Abu^15,Nle^27,Agm^29)hGH-RH(1-29)] (Desaminotyrosyl-ADAIFTNSYR[Orn]VL[Abu]QLSARKLLQDI[Nle]S-Agmatine) | 3.8 | 
4 | hGH-RH(1-29)NH2 (YADAIFTNSYRKVLGQLSARKLLQDIMSR-NH2; UniProt P01286 32-60, looked up, fragment) |  | approximately 50%
